# PMC11243058, “Identification of Novel Isatin Derivative Bearing a Nitrofuran Moiety as Potent Multi-Isoform Aldehyde Dehydrogenase Inhibitor” (Molecules, 2024)
# Like-named read-outs stand apart in the source and are kept apart here.
# Columns and labels:
# SKOV-3 = assay: Cell viability assay (MTS), SKOV-3; format: cell-based, human; settings: Homo sapiens, SK-OV-3, ovarian cancer cells, 48 h, mean ± SD
# Description: (§1) Five thousand cells/well were plated in 96-well plates in growth media and left for attachment for 24 h. The cells were then treated with the respective compounds using varying concentrations for 48 h. At the end of the treatment duration, a solution of MTS [3-(4,5-dimethylthiazol-2-yl)-5-(3-carboxymethoxyphenyl)-2-(4-sulfophenyl)-2H-tetrazolium] and an electron coupling reagent, PES (phenazine ethosulfate) (Promega, Madison, WI, USA) was added to the cells. Then, 15 μL of MTS reagent was added to each well, and the absorbance was assessed at 490 nm with a microplate reader (Dynex Technologies, MRX Revelation; Chantilly, VA, USA) after 1 h incubation with MTS. The data were recorded, and the IC50 value was calculated using non-linear curve regression analysis (Graph pad V8.0, CA, USA).
# [1] = Cell viability assay (MTS), statements over the cell line panel; format: cell-based, human; settings: human; range or statement over all tested cell lines, 48 h MTS; read-out: IC50 / cytotoxicity against the tested cell lines
# Description: as §1
# FHC = assay: Cell viability assay (MTS), FHC; format: cell-based; settings: FHC, normal fetal human cells, 48 h, mean ± SD
# Description: as §1
# HEK-293 = assay: Cell viability assay (MTS), HEK-293; format: cell-based; settings: HEK293, human embryonic kidney cells, 48 h, mean ± SD
# Description: as §1
# MiaPaCa-2 = assay: Cell viability assay (MTS), MiaPaCa-2; format: cell-based, human; settings: Homo sapiens, MIA PaCa-2, pancreatic cancer cells, 48 h, mean ± SD
# Description: as §1
# HCT-116 = assay: Cell viability assay (MTS), HCT-116; format: cell-based, human; settings: Homo sapiens, HCT-116, colon cancer cells, 48 h, mean ± SD
# Description: as §1
# HCT-116 cells [2] = assay: ROS generation (Muse Oxidative Stress Kit); format: cell-based, human; settings: HCT-116, 3 µM, 24 h, relative to KS100
# Description: The Muse® Oxidative Stress Kit (Luminex Corp., Austin, TX, USA) was used to assess the generation of ROS in the HCT-116 cells after the treatment with the compounds. In a 6-well plate, the cells were seeded at a density of 1 × 10^5 cells/well. After 24 h incubation, the cells were treated with the respective compounds with or without 5 mM of N-acetylcysteine (NAC) in the serum-enriched medium for 24 h. At the end of the treatment duration, the cells were harvested, and 10 μL of cells in suspension was added into each tube. Furthermore, 190 μL of Muse Oxidative Stress Reagent working solution was added to each tube. The samples were mixed thoroughly by pipetting up and down or vortexing at medium speed for 3 to 5 s. The samples were incubated for 30 min at 37 °C and analyzed using Muse Cell Analyzer.
# ALDH3A1 = target: T1, ALDH3A1 (Homo sapiens, UniProt P30838); assay: ALDH isoform-specific enzyme inhibition assay, ALDH3A1; format: biochemical; settings: 500 nM, Acetaldehyde (Substrate)
# T1 construct: purchased R&D systems
# T1 sequence (P30838 1-453): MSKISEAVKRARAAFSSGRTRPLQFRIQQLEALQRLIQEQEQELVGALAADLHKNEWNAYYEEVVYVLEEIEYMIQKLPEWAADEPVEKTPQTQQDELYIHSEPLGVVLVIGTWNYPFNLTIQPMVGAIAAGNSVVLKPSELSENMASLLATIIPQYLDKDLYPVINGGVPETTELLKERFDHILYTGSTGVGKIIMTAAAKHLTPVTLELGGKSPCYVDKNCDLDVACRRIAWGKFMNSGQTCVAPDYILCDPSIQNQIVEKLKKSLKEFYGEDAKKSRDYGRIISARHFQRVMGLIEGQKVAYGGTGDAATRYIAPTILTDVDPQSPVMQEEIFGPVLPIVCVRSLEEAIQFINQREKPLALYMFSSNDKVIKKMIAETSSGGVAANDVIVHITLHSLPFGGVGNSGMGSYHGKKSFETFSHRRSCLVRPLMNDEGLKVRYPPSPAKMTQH
# Description: (§2) ALDH1A1, ALDH3A1, and ALDH1A3 enzyme inhibition assays were performed as reported previously. Briefly, 500 ng/100 uL of ALDH1A1, ALDH3A1, and ALDH1A3 were treated with 500 nM concentration of the tested compounds and incubated for 15 min followed by the addition of reaction mixture (substrate + Substrate mixture). […] The absorbance was measured at 450 nm. [Absorbance Control–Absorbance treated/Absorbance Control]100 was used to compute the percentage of inhibition.
# HCT-116 cells [3] = assay: Apoptosis assay, Annexin V/7-AAD; format: cell-based, human; settings: HCT-116, 3 µM, 48 h, relative to KS100
# Description: (§3) The apoptosis assays were carried out following the manufacturer’s instructions using the Muse Caspase-3/7 assay kit and Annexin V/7-AAD kit (Luminex Corp., TX, US). In a 6-well plate, the cells were seeded at a density of 1X105 cells/well. The cells were treated with 3 µM of the compounds following a 24 h incubation period. The cells were cultured for 48 h (Annexin V/7-AAD) as opposed to 24 h (Caspase-3/7 test). Cell Dissociation buffer, an enzyme-free solution, was used to harvest the cells at the end of the treatment period. The samples were then given the appropriate dye treatments following the manufacturer’s instructions.
# [4] = test system: SKOV-3, MiaPaCa-2, HCT-116, HEK-293, and FHC cell lines; assay: Cell viability assay (MTS), statements over the cell line panel; format: cell-based, human; settings: for IC50: Homo sapiens
# Description: as §1
# γH2AX in HCT-116 cells = assay: Western blot for γH2AX; format: cell-based, human; settings: HCT-116, 3 µM, 12 h
# Description: Western blotting was performed as described previously. The antibodies used were procured from Cell Signaling Technologies. […] The protein was transferred to a 0.45 µm pore membrane (Immobilon®-P PVDF Membrane, EMD Millipore, USA). The membranes were further treated with the respective primary and secondary antibodies. The Western blot images are representative of three independent experiments.
# ALDH1A1 = target: T2, ALDH1A1 (Homo sapiens, UniProt P00352); assay: ALDH isoform-specific enzyme inhibition assay, ALDH1A1; format: biochemical; settings: 500 nM, Acetaldehyde (Substrate)
# T2 construct: purchased R&D systems
# T2 sequence (P00352 1-501): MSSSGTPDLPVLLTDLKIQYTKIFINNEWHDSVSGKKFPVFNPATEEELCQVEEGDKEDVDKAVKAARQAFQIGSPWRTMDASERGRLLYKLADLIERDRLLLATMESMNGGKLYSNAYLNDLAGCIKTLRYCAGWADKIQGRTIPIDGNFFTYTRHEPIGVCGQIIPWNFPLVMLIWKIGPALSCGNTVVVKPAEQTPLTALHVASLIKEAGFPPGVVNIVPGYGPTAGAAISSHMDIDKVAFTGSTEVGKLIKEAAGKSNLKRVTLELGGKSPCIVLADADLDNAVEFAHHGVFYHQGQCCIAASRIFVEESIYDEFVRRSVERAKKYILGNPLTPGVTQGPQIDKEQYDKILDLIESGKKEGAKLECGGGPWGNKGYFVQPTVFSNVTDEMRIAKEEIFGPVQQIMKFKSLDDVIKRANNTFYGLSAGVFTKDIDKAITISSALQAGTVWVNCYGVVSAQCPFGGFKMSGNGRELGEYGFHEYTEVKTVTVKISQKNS
# Description: as §2
# HCT-116 cells [5] = assay: Apoptosis assay, Muse Caspase-3/7 7-AAD; format: cell-based, human; settings: HCT-116, 3 µM, 24 h, relative to KS100
# Description: as §3
# UACC 903 cells = assay: ALDEFLUOR assay; format: cell-based, human; settings: UACC 903 melanoma cells, 1 µM, 24 h
# Description: Aldehyde dehydrogenase (ALDH) activity within human melanoma cells was assessed by utilizing the ALDEFLUOR Kit from […] Technologies. […] Post-treatment, cells were washed with PBS, and the ALDEFLUOR assay was performed following the manufacturer’s protocol, employing DEAB as a negative control. ALDH percentages were determined using a BD LSRFortessa flow cytometer (San Jose, CA, USA).
# HNSCC xenograft = settings: injected intratumorally ref 29; cited from earlier work
SMILES,IC50 (SKOV-3),IC50 at 48 h [1],IC50 (FHC),IC50 (HEK-293),IC50 (MiaPaCa-2),IC50 (HCT-116),more ROS than KS100 (HCT-116 cells [2]),inhibition at 0.5 µM (ALDH3A1),"more apoptotic cell population than KS100, Annexin V/7-AAD (HCT-116 cells [3])","IC50 ([4]; HEK293, FHC and HEK-293, 48 h MTS, read-out: IC50 in normal and embryonic kidney cells)","IC50 ([4]; Pancreatic cancer cell, ovarian, colon, and pancreatic cancer cells, 48 h MTS, read-out: IC50 in cancer cell lines)",greater effectiveness than KS100 in targeting cancer cells ([4]; from MTS IC50 values),γH2AX protein levels (γH2AX in HCT-116 cells),inhibition at 0.5 µM (ALDH1A1),"more apoptotic cell population than KS100, caspase-3/7 7-AAD (HCT-116 cells [5])",inhibition of overall ALDH activity (ALDEFLUOR) (UACC 903 cells),melting point,"IC50 ([4]; Pancreatic cancer cell, 48 h, read-out: IC50 in cancer cell lines)",reduction of HNSCC xenograft development (HNSCC xenograft)
"COC(=O)/C=C/c1ccc(CN2C(=O)C(=O)c3cc(Br)cc(Br)c32)cc1 [Compound 2, Methyl (E)-3-(4-((5,7-dibromo-2,3-dioxoindolin-1-yl)methyl)phenyl)acrylate]",21.8 ± 2.4 µM,> 20 µM,22.9 ± 3.3 µM,24.1 ± 6.8 µM,22.3 ± 5.1 µM,19.6 ± 3.3 µM,,,,,,,,,,,,,
"O=C(OCc1ccc(CN2C(=O)C(=O)c3cc(Br)cc(Br)c32)cc1)c1ccc([N+](=O)[O-])o1 [Compound 3, 4-((5,7-Dibromo-2,3-dioxoindolin-1-yl)methyl)benzyl 5-nitrofuran-2-carboxylate]",2.2 ± 0.2 µM,2.1 to 6.8 µM,7.1 ± 0.8 µM,8.7 ± 1.1 µM,3.8 ± 0.4 µM,2.1 ± 0.1 µM,34.7%,51.87 ± 0.05%,~ 13%,7.1 to 8.7 µM,2.1 to 3.8 µM,0.5 to 2 times,increased γH2AX protein levels,51.32 ± 0.01%,~ 12.8%,~ 2.5 fold,,,
"Br.N=C(N)SCc1ccc(Cn2nc(Br)c3cccc(C(F)(F)F)c32)cc1 [Compound 17, 4-((3-Bromo-7-(trifluoromethyl)-1H-indazol-1-yl)methyl)benzyl carbamimidothioate hydrobromide]",> 50 µM,,> 50 µM,> 50 µM,> 50 µM,> 50 µM,,-25.33 ± 0.05%,,,,,,10.99 ± 0.0015%,,,235 to 237 °C,> 50 µM,
"Br.N=C(N)SCc1ccc(Cn2nc(Br)c3cc(C(F)(F)F)ccc32)cc1 [Compound 16, 4-((3-Bromo-5-(trifluoromethyl)-1H-indazol-1-yl)methyl)benzyl carbamimidothioate hydrobromide]",4 ± 1.3 µM,2.1 to 6.8 µM,7.1 ± 1.1 µM,5.7 ± 1.3 µM,6.8 ± 1.4 µM,4.9 ± 1.1 µM,,-9.33 ± 0.04%,,,,,,9.46 ± 0.01%,,,213 to 215 °C,,
CC(C)CCn1c(CN2CCN(C(=O)C3CC3)CC2)nc2c1c(=O)n(C)c(=O)n2C [NCT-501],,,,,,,,,,,,,,,,,,,78%
"Br.C=CCNC(=N)SCc1ccc(CN2C(=O)C(=O)c3cc(Br)cc(Br)c32)cc1 [Compound 1, 4-((5,7-Dibromo-2,3-dioxoindolin-1-yl)methyl)benzyl allylcarbamimidothioate hydrobromide]",4.8 ± 0.2 µM,2.1 to 6.8 µM,2.9 ± 0.3 µM,4.1 ± 0.8 µM,2.4 ± 1.1 µM,4.7 ± 1.1 µM,,30.59 ± 0.02%,,,,,,35.37 ± 0.01%,,,118 to 120 °C,,
